# Assay results as given in publication PMC3648604 (Antiviral research, 2013).
# Molecular target: NA activity of the H5N1 influenza viruses (Influenza A virus (H5N1), UniProt Q6DPL2)
# Format: biochemical, human and avian HP H5N1 influenza viruses
# Sequence of NA activity of the H5N1 influenza viruses (Q6DPL2 whole entry, looked up): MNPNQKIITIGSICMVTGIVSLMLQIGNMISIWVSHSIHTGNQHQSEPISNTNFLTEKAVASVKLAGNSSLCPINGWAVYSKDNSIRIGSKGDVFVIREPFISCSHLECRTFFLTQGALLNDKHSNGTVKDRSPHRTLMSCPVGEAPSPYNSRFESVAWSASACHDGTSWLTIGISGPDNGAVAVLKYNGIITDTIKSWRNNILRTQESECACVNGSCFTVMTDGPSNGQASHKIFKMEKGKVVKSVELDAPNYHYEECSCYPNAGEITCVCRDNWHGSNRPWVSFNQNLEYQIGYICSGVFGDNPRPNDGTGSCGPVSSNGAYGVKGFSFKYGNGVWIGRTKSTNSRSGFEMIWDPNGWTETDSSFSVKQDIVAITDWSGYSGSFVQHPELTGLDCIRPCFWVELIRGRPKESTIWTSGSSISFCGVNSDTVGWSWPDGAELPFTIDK
smiles,measurement,value
"CC(=O)N[C@H]1[C@H]([C@H](O)[C@H](O)CO)OC(C(=O)O)=C[C@@H]1N=C(N)N [Zanamivir, 4-guanidino-Neu5Ac2en]",susceptibility in phenotypic fluorescence-based assay,fully susceptible
